# Measured values: publication PMC7725785, “TRIB3 promotes MYC-associated lymphoma development through suppression of UBE3B-mediated MYC degradation” (Nature Communications, 2020)
# Values joined by “and” are separate entries in the source; they are usually repeats but may differ in a detail not shown here. Equal entries are not always repeated.
# Columns and labels:
# MYC and UBE3B = assay: MYC/UBE3B colocalized foci in Raji cells; assay type: cell-based, human
# Method: A total of 1 × 10^6 cells were seeded overnight in a six-well plate. […] The cells were then treated with the Duolink In Situ Red Starter Mouse/Rabbit kit (Sigma Aldrich, DUO92101-1KT) according to the manufacturer’s instructions. Images were captured with an OLYMPUS confocal microscope.
# For immunofluorescence staining, cells seeded on coverslips were briefly washed with PBS and fixed with 4% buffered paraformaldehyde for 15 min, permeabilized with 0.5% Triton X- 100 for 15 min, blocked with 3% BSA for 30 min at 37 °C, and stained with specific primary antibodies followed by corresponding secondary antibodies. Nuclei were counterstained with DAPI. Images were captured using a confocal fluorescent microscope (Olympus Microsystems, CA, USA). Quantitative image analysis was performed with the Imaris 9.3.1 software. Pearson’s coefficient was use to analyze colocalization between two target proteins.
# RNAPII = assay: ChIP-seq of RNAPII occupancy in Raji cells; assay type: cell-based, human; conditions: ChIP-seq with spike-in, result in words
# Method: ChIP assays were performed according to the manufacturer’s protocol using a SimpleChIP® Plus Sonication Chromatin IP Kit (Cell Signaling Technology, Danvers, MA, USA, (#56383). Briefly, cells were fixated with 1% formaldehyde (Sigma Aldrich, F8775) for 8 min, incubated with glycine (50 mM final) for 10 min and washed three times with PBS. After cell lysis and chromatin extraction, chromatin was sonicated to 100–500 bp using a BioRuptor sonicator (Diagenode), followed by centrifugation at 16,000×g for 10 min at 4 °C. To control for experimental variation, our spike-in data were normalized to a spike-in control consisting of a small amount of chromatin from another species. Briefly, Baf3 cell lysates were sonicated exactly as described above and added at a 1:100 ratio of Raji cells to lysates. […] The Qubit® 3.0 A fluorometer was used for quantitation of the ChIP library. […]
# The ChIP libraries were sequenced on Illumina HiSeq platform in 150 bp paired-end reads. After quality control, the clean reads were aligned to the human reference genome (Homo sapiens. GRCh38.87v2) with Bowtie v2.1.0. Unambiguously mapped reads were retained for subsequent generation of binding profiles, heatmaps and calling of peaks. […] Mapped reads were visualized using the Integrative Genomics Viewer (IGV). We next used the murine spike-in to quantitatively normalize different samples. […]
# MYC ubiquitination = MYC ubiquitination in PCON- and PCM4-treated Raji cells; assay type: cell-based, human; conditions: lymphoma cells; result in words
# DLBCL^T69 PDX = assay: PDX model tumor growth and weight, DLBCL T69; assay type: in vivo, human; conditions: result in words
# Method: (§1) Four 5-week-old male NSG mice were implanted subcutaneously with 200 μl of a 1:1 mixture of Matrigel® Basement Membrane Matrix High Concentration (Corning, 354230) and minced fresh tumor fragments resected from lymphoma patients. Approximately 3–4 weeks following implantation, the first-generation mice (G1) were killed, and tumor masses were isolated. The tumor cells were tested for human CD19 (BCL) or CD3 expression (T cell lymphoma), and the remaining tumor mass was cut into 3-mm^3 sections and passaged into 4–5 NSG mice as the second generation (G2). After stable passage of the third generation (G3), the tumor mass of the fourth generation (G4) was equally cut into 3-mm^3 pieces and then passaged subcutaneously into 30–50 NSG mice (100 μl of a 1:2 mixture of Matrigel and tumor tissue) for in vivo treatment (6–8 mice per group, dependent on the experimental drug treatment). During and after treatment with the vehicle control or the indicated agent, tumor burden was evaluated by measuring the tumor volume to determine the therapeutic efficacy in the PDX models. […]
# (§2) To evaluate the survival rate, these mice were monitored for 8 months (Myc^Eμ mice). […] During the indicated treatments, tumor burden was evaluated by measuring the tumor volume to determine the therapeutic efficacy in the PDX models.
# DLBCL^T156 PDX = assay: PDX model tumor growth and weight, DLBCL T156; assay type: in vivo, human; conditions: result in words
# Method: as §1, §2
sequence,measurement,setting,value
"HLYVSPWGGKRREQLKHKLEQLR [PCM4, fused peptide generated by linking CM4 to a cell-penetrating peptide]",Fig 6f. MYC/UBE3B foci per cell,"MYC and UBE3B; 30 Min, single cells, n = 20",12 and 11
same,interaction of MYC and UBE3B,MYC and UBE3B; result in words,rescued the interaction of MYC and UBE3B
same,association of RNAPII with promoters,RNAPII,globally reduced the association of RNAPII with promoters
same,MYC ubiquitination and degradation,MYC ubiquitination,rescued MYC ubiquitination and degradation
same,"growth and weights of tumors, combination of PCM4 and DOX","DLBCL^T69 PDX; PDX T69 (high TRIB3 and MYC expression), PCM4 5 mg/kg and DOX 2 mg/kg",further decreased the growth and weights of tumors
same,tumor growth of PDX,"DLBCL^T69 PDX; PDX T69, NSG mice, PCM4 5 mg/kg i.v. three times a week",inhibited the tumor growth
same,"growth and weights of tumors, combination of PCM4 and DOX","DLBCL^T156 PDX; PDX T156 (high TRIB3 and MYC expression), PCM4 5 mg/kg and DOX 2 mg/kg",further decreased the growth and weights of tumors
same,tumor growth of PDX,"DLBCL^T156 PDX; PDX T156, NSG mice, PCM4 5 mg/kg i.v. three times a week",inhibited the tumor growth
